Experiment: Adverse events (treatment-related and all-cause) and dose-limiting toxicities, NCI CTCAE version 4.0
Details: all-cause adverse events
[1] = Group 1, Skin and subcutaneous tissue disorders

Method: The phase 1b portion of the study used a standard 3 + 3 dose-escalation design with a starting dose level 1 (DL1) of 37 mg oral daily TP-0903 (Supplementary Table S2) based on experience with 50 mg oral daily as a single agent in patients with solid tumors ([25]). Dose-limiting toxicities (DLT) were evaluated to establish the dose brought forward for an expansion cohort (phase 2). Seven patients were enrolled in the phase 1b study, which was completed in January 2021 with the decision to move forward with an expansion cohort of 37 mg oral daily. Across the phase 1b and phase 2 studies, 15 patients were enrolled and started on 37 mg TP-0903 oral daily on days 1 to 21 (group 1). […] One additional patient was enrolled at this time but was inadvertently started on 25 mg TP-0903 oral daily on days 1 to 21. […] In May 2021, an amendment was approved to allow enrollment of a new group 2 at 25mg oral daily on days 1 to 21 of TP-0903 (DL-1) in stage 2 of the phase 2 study.
Clinical response was assessed according to the modified 2017 European LeukemiaNet AML criteria ([26]). The primary endpoint was achievement of CR within six cycles of therapy. Secondary endpoints included toxicity, duration of response, OS, and the proportion of eligible patients who effectively transitioned to allogeneic stem cell transplantation. Exploratory endpoints included pharmacokinetics (PK), correlative genetic, and biochemical data; correlations between morphologic remission, spectral flow cytometry, and mutational remission; and duration of remission or survival. […] Adverse events (AE) were graded according to the NCI Common Terminology Criteria for Adverse Events version 4.0 ([27]).

CN1CCN(Cc2ccc(Nc3ncc(Cl)c(Nc4ccccc4S(=O)(=O)N(C)C)n3)cc2)CC1.O=C(O)C(O)C(O)C(=O)O.O=C(O)C(O)C(O)C(=O)O [TP-0903, 2-(5-chloro-2-(4-((4-methylpiperazin-1-yl)methyl)phenylamino)pyrimidin-4-yl)amino-N,N-dimethylbenzene-1-sulfonamide di-tartrate salt]
Atrial fibrillation with RVR, All (Group 1, Missing Categories): 0 (0) | Atrial fibrillation with RVR, Grade 1 2 (Group 1, Missing Categories): 0 (0) | Atrial fibrillation with RVR, Grade 3+ (Group 1, Missing Categories): 0 (0) | COPD exacerbation, All (Group 1, Missing Categories): 1 (6.7) | COPD exacerbation, Grade 1 2 (Group 1, Missing Categories): 1 (6.7) | COPD exacerbation, Grade 3+ (Group 1, Missing Categories): 0 (0) | Chest pain (non-cardiac), All (Group 1, Missing Categories): 0 (0) | Chest pain (non-cardiac), Grade 1 2 (Group 1, Missing Categories): 0 (0) | Chest pain (non-cardiac), Grade 3+ (Group 1, Missing Categories): 0 (0) | Death, NOS, All (Group 1, Missing Categories): 1 (6.7) | Death, NOS, Grade 1 2 (Group 1, Missing Categories): 0 (0) | Death, NOS, Grade 3+ (Group 1, Missing Categories): 1 (6.7) | Diarrhea (intermittent), All (Group 1, Missing Categories): 0 (0) | Diarrhea (intermittent), Grade 1 2 (Group 1, Missing Categories): 0 (0) | Diarrhea (intermittent), Grade 3+ (Group 1, Missing Categories): 0 (0) | Hand-Foot Syndrome, All (Group 1, Missing Categories): 1 (6.7) | Hand-Foot Syndrome, Grade 1 2 (Group 1, Missing Categories): 1 (6.7) | Hand-Foot Syndrome, Grade 3+ (Group 1, Missing Categories): 0 (0) | Hip Pain, All (Group 1, Missing Categories): 1 (6.7) | Hip Pain, Grade 1 2 (Group 1, Missing Categories): 1 (6.7) | Hip Pain, Grade 3+ (Group 1, Missing Categories): 0 (0) | Hypokalemia (intermittent), All (Group 1, Missing Categories): 0 (0) | Hypokalemia (intermittent), Grade 1 2 (Group 1, Missing Categories): 0 (0) | Hypokalemia (intermittent), Grade 3+ (Group 1, Missing Categories): 0 (0) | Hypotension (intermittent), All (Group 1, Missing Categories): 0 (0) | Hypotension (intermittent), Grade 1 2 (Group 1, Missing Categories): 0 (0) | Hypotension (intermittent), Grade 3+ (Group 1, Missing Categories): 0 (0) | INR - Increased, All (Group 1, Missing Categories): 1 (6.7) | INR - Increased, Grade 1 2 (Group 1, Missing Categories): 1 (6.7) | INR - Increased, Grade 3+ (Group 1, Missing Categories): 0 (0) | Inflammation (bilateral knee), All (Group 1, Missing Categories): 0 (0) | Inflammation (bilateral knee), Grade 1 2 (Group 1, Missing Categories): 0 (0) | Inflammation (bilateral knee), Grade 3+ (Group 1, Missing Categories): 0 (0) | Itching (intermittent), All (Group 1, Missing Categories): 0 (0) | Itching (intermittent), Grade 1 2 (Group 1, Missing Categories): 0 (0) | Itching (intermittent), Grade 3+ (Group 1, Missing Categories): 0 (0) | Microvascular ischemic disease, All (Group 1, Missing Categories): 0 (0) | Microvascular ischemic disease, Grade 1 2 (Group 1, Missing Categories): 0 (0) | Microvascular ischemic disease, Grade 3+ (Group 1, Missing Categories): 0 (0) | Pain (leg), All (Group 1, Missing Categories): 0 (0) | Pain (leg), Grade 1 2 (Group 1, Missing Categories): 0 (0) | Pain (leg), Grade 3+ (Group 1, Missing Categories): 0 (0) | Retinal Detachment, All (Group 1, Missing Categories): 1 (6.7) | Retinal Detachment, Grade 1 2 (Group 1, Missing Categories): 1 (6.7) | Retinal Detachment, Grade 3+ (Group 1, Missing Categories): 0 (0) | Steroid-induced hyperglycemia, All (Group 1, Missing Categories): 0 (0) | Steroid-induced hyperglycemia, Grade 1 2 (Group 1, Missing Categories): 0 (0) | Steroid-induced hyperglycemia, Grade 3+ (Group 1, Missing Categories): 0 (0) | Symptomatic anemia, All (Group 1, Missing Categories): 0 (0) | Symptomatic anemia, Grade 1 2 (Group 1, Missing Categories): 0 (0) | Symptomatic anemia, Grade 3+ (Group 1, Missing Categories): 0 (0) | lung fullness, All (Group 1, Missing Categories): 1 (6.7) | lung fullness, Grade 1 2 (Group 1, Missing Categories): 1 (6.7) | lung fullness, Grade 3+ (Group 1, Missing Categories): 0 (0) | neuropathy (BLE), All (Group 1, Missing Categories): 0 (0) | neuropathy (BLE), Grade 1 2 (Group 1, Missing Categories): 0 (0) | neuropathy (BLE), Grade 3+ (Group 1, Missing Categories): 0 (0) | pericarditis (intermittent), All (Group 1, Missing Categories): 0 (0) | pericarditis (intermittent), Grade 1 2 (Group 1, Missing Categories): 0 (0) | pericarditis (intermittent), Grade 3+ (Group 1, Missing Categories): 0 (0) | Dry skin, All [1]: 1 (6.7) | Dry skin, Grade 1 2 [1]: 1 (6.7) | Dry skin, Grade 3+ [1]: 0 (0) | Ecchymosis, All [1]: 1 (6.7) | Ecchymosis, Grade 1 2 [1]: 1 (6.7) | Ecchymosis, Grade 3+ [1]: 0 (0) | Erythema nodosum, All [1]: 0 (0) | Erythema nodosum, Grade 1 2 [1]: 0 (0) | Erythema nodosum, Grade 3+ [1]: 0 (0) | Erythema, All [1]: 1 (6.7) | Erythema, Grade 1 2 [1]: 1 (6.7) | Erythema, Grade 3+ [1]: 0 (0) | Hyperhidrosis, All [1]: 0 (0) | Hyperhidrosis, Grade 1 2 [1]: 0 (0) | Hyperhidrosis, Grade 3+ [1]: 0 (0) | Nail discolouration, All [1]: 1 (6.7) | Nail discolouration, Grade 1 2 [1]: 1 (6.7) | Nail discolouration, Grade 3+ [1]: 0 (0) | Petechiae, All [1]: 0 (0) | Petechiae, Grade 1 2 [1]: 0 (0) | Petechiae, Grade 3+ [1]: 0 (0) | Photosensitivity reaction, All [1]: 1 (6.7) | Photosensitivity reaction, Grade 1 2 [1]: 1 (6.7) | Photosensitivity reaction, Grade 3+ [1]: 0 (0) | Pruritus, All [1]: 1 (6.7) | Pruritus, Grade 1 2 [1]: 1 (6.7) | Pruritus, Grade 3+ [1]: 0 (0) | Rash papular, All [1]: 0 (0) | Rash papular, Grade 1 2 [1]: 0 (0) | Rash papular, Grade 3+ [1]: 0 (0) | Rash, All [1]: 1 (6.7) | Rash, Grade 1 2 [1]: 1 (6.7) | Rash, Grade 3+ [1]: 0 (0) | Scab, All [1]: 0 (0) | Scab, Grade 1 2 [1]: 0 (0) | Scab, Grade 3+ [1]: 0 (0) | Skin disorder, All [1]: 1 (6.7) | Skin disorder, Grade 1 2 [1]: 1 (6.7) | Skin disorder, Grade 3+ [1]: 0 (0) | Skin lesion, All [1]: 0 (0) | Skin lesion, Grade 1 2 [1]: 0 (0) | Skin lesion, Grade 3+ [1]: 0 (0) | Swelling face, All [1]: 0 (0) | Swelling face, Grade 1 2 [1]: 0 (0) | Swelling face, Grade 3+ [1]: 0 (0) | Hypertension, All (Group 1, Vascular disorders): 1 (6.7) | Hypertension, Grade 1 2 (Group 1, Vascular disorders): 0 (0) | Hypertension, Grade 3+ (Group 1, Vascular disorders): 1 (6.7) | Hypotension, All (Group 1, Vascular disorders): 3 (20) | Hypotension, Grade 1 2 (Group 1, Vascular disorders): 2 (13.3) | Hypotension, Grade 3+ (Group 1, Vascular disorders): 1 (6.7) | Lymphoedema, All (Group 1, Vascular disorders): 0 (0) | Lymphoedema, Grade 1 2 (Group 1, Vascular disorders): 0 (0) | Lymphoedema, Grade 3+ (Group 1, Vascular disorders): 0 (0) | Peripheral venous disease, All (Group 1, Vascular disorders): 0 (0) | Peripheral venous disease, Grade 1 2 (Group 1, Vascular disorders): 0 (0) | Peripheral venous disease, Grade 3+ (Group 1, Vascular disorders): 0 (0) | Atrial fibrillation with RVR, All (Group 2, Missing Categories): 1 (8.3) | Atrial fibrillation with RVR, Grade 1 2 (Group 2, Missing Categories): 1 (8.3) | Atrial fibrillation with RVR, Grade 3+ (Group 2, Missing Categories): 0 (0) | COPD exacerbation, All (Group 2, Missing Categories): 0 (0) | COPD exacerbation, Grade 1 2 (Group 2, Missing Categories): 0 (0) | COPD exacerbation, Grade 3+ (Group 2, Missing Categories): 0 (0) | Chest pain (non-cardiac), All (Group 2, Missing Categories): 1 (8.3) | Chest pain (non-cardiac), Grade 1 2 (Group 2, Missing Categories): 1 (8.3) | Chest pain (non-cardiac), Grade 3+ (Group 2, Missing Categories): 0 (0) | Death, NOS, All (Group 2, Missing Categories): 0 (0) | Death, NOS, Grade 1 2 (Group 2, Missing Categories): 0 (0) | Death, NOS, Grade 3+ (Group 2, Missing Categories): 0 (0) | Diarrhea (intermittent), All (Group 2, Missing Categories): 1 (8.3) | Diarrhea (intermittent), Grade 1 2 (Group 2, Missing Categories): 1 (8.3) | Diarrhea (intermittent), Grade 3+ (Group 2, Missing Categories): 0 (0) | Hand-Foot Syndrome, All (Group 2, Missing Categories): 0 (0) | Hand-Foot Syndrome, Grade 1 2 (Group 2, Missing Categories): 0 (0) | Hand-Foot Syndrome, Grade 3+ (Group 2, Missing Categories): 0 (0) | Hip Pain, All (Group 2, Missing Categories): 0 (0) | Hip Pain, Grade 1 2 (Group 2, Missing Categories): 0 (0) | Hip Pain, Grade 3+ (Group 2, Missing Categories): 0 (0) | Hypokalemia (intermittent), All (Group 2, Missing Categories): 1 (8.3) | Hypokalemia (intermittent), Grade 1 2 (Group 2, Missing Categories): 1 (8.3) | Hypokalemia (intermittent), Grade 3+ (Group 2, Missing Categories): 0 (0)
